# Laboratory results taken from patent US6387605B1, “Co-developers for black-and-white photothermographic elements” (Eastman Kodak Company, priority 1999, dated 2002).
# Assay: Solubility of co-developers in coating solvents (Example 5)
# Assay type: physicochemical
# Protocol: Solubility of Co-developers: In order for the co-developer to perform effectively, some quantity of the co-developer must be soluble in the coating solvent for the emulsion layer or topcoat layer. 2-Butanone MEK) and methanol are typical solvents for these layers. Solubility will vary depending on the structure of the co-developer, the composition of the layer containing the co-developer, and the solvents employed.
# The photothermographic elements of this invention typically require from 10 mg to 100 mg of co-developer in 40 g of photothermographic emulsion in 25 g 2-butanone in order to achieve high contrast. The photothermographic emulsions are held at 50° F. (10° C.). As this is below room temperature, the solubility is below that of the co-developer at room temperature.
# The solubility of co-developer CI-03 in 25 g of 2-butanone (MEK) and in 25 g of methanol was determined.
smiles,measurement,setting,value
"O=C1NC(=O)C(=CO)C(=O)N1 [CI-03, 5-(Hydroxymethylone)-2,4,5(1H3H,5H)-pyrimdine-trione]",Solubility in MEK,"2.5 mg in 25 g 2-butanone, room temperature",Soluble at room temperature.
same,Solubility in MEK,"5.0 mg in 25 g 2-butanone, 90° F. (32° C.)",Soluble at 90° F. (32° C.).
same,Solubility in MEK,"5.0 mg in 25 g 2-butanone, room temperature",Insoluble at room temperature.
same,Solubility in MeOH,"5 mg in 25 g methanol, room temperature",Soluble at room temperature.
same,Solubility in MEK,"12.5 mg in 25 g 2-butanone, 90° F. (32° C.)",Insoluble at 90° F. (32° C.).
same,Solubility in MeOH,"12.5 mg in 25 g methanol, 90° F. (32° C.)",Soluble at 90° F. (32° C.).
same,Solubility in MeOH,"12.5 mg in 25 g methanol, room temperature",Insoluble at room temperature.
same,Solubility in MEK,"25 mg in 25 g 2-butanone, 90° F. (32° C.)",Insoluble at 90° F. (32° C.).
same,Solubility in MeOH,"25 mg in 25 g methanol, 90° F. (32° C.)",Soluble at 90° F. (32° C.).
same,Solubility in MeOH,"25 mg in 25 g methanol, room temperature",Insoluble at room temperature.
same,Solubility in organic solvents,"Example 1, sample 1-28",Compound CI-03 was insoluble in organic solvents.
